Experimental data as given in ChEMBL document CHEMBL2424615, “Design, synthesis, and characterization of novel tetrahydropyran-based bacterial topoisomerase inhibitors with potent anti-gram-positive activity” (J Med Chem, 2013).

What was measured:
[1] = system: Staphylococcus aureus; test: Antibacterial activity against wild type Staphylococcus aureus ATCC 29213 assessed as growth inhibition by broth microdilution method; type: functional
[2] = target: DNA gyrase subunit A (Staphylococcus aureus, UniProt P20831, D83N); test: Inhibition of NXL-101-resistant Staphylococcus aureus DNA gyrase D83N mutant assessed as pBR322 supercoiling after 1 hr
[3] = system: Streptococcus pneumoniae; test: Antibacterial activity against wild type Streptococcus pneumoniae ATCC 49619 assessed as growth inhibition by broth microdilution method; type: functional
[4] = target: Topoisomerase IV (Staphylococcus aureus, UniProt P0C1S7+P0C1U9); test: Inhibition of wild type Staphylococcus aureus ATCC 29213 topoisomerase-4 subunit 2GrlA/2GrlB assessed as pBR322 relaxation after 1 hr; type: protein-complex assay
[5] = system: Escherichia coli; test: Antibacterial activity against wild type Escherichia coli ATCC 25922 assessed as growth inhibition by broth microdilution method; type: functional
[6] = system: Enterococcus faecium; test: Antibacterial activity against vancomycin-resistant Enterococcus faecium A-949 assessed as growth inhibition by broth microdilution method; type: functional
[7] = system: Staphylococcus aureus; test: Antibacterial activity against NXL-101-resistant Staphylococcus aureus harboring DNA gyrase D83N mutant assessed as growth inhibition by broth microdilution method; type: functional
[8] = system: Pseudomonas aeruginosa; test: Antibacterial activity against wild type Pseudomonas aeruginosa ATCC 27853 assessed as growth inhibition by broth microdilution method; type: functional
[9] = target: DNA gyrase (Staphylococcus aureus, UniProt P0A0K8+P20831); test: Inhibition of wild type Staphylococcus aureus DNA gyrase subunit 2GyrA/2GyrB assessed as pBR322 supercoiling after 1 hr; type: protein-complex assay
[10] = Inhibition of wild type Escherichia coli ATCC 25922 DNA topoisomerase-4 subunit 2ParC/2ParE assessed as pBR322 relaxation after 1 hr
[11] = Inhibition of wild type Escherichia coli ATCC 25922 DNA gyrase subunit 2GyrA/2GyrB assessed as pBR322 supercoiling after 1 hr
[12] = system: Staphylococcus aureus; test: Antibacterial activity against methicillin and quinolone-resistant Staphylococcus aureus A-798 assessed as growth inhibition by broth microdilution method; type: functional
[13] = target: DNA gyrase subunit A (Staphylococcus aureus, UniProt P20831, S84L); test: Inhibition of quinolone-resistant Staphylococcus aureus A-798 DNA gyrase S84L mutant assessed as pBR322 supercoiling after 1 hr
[14] = system: Staphylococcus aureus; test: Antibacterial activity against NXL-101-resistant Staphylococcus aureus A-234 harboring DNA gyrase subunit A D83N mutant assessed as growth inhibition by broth microdilution method; type: functional
[15] = target: hERG (KCNH2) (Homo sapiens, UniProt Q12809); test: Inhibition of human ERG expressed in CHO cells at 10 uM after 3 mins by patch clamp assay relative to control; type: cell-based; conditions: CHO cells that express human ERG
hERG (KCNH2), sequence (Q12809 whole entry): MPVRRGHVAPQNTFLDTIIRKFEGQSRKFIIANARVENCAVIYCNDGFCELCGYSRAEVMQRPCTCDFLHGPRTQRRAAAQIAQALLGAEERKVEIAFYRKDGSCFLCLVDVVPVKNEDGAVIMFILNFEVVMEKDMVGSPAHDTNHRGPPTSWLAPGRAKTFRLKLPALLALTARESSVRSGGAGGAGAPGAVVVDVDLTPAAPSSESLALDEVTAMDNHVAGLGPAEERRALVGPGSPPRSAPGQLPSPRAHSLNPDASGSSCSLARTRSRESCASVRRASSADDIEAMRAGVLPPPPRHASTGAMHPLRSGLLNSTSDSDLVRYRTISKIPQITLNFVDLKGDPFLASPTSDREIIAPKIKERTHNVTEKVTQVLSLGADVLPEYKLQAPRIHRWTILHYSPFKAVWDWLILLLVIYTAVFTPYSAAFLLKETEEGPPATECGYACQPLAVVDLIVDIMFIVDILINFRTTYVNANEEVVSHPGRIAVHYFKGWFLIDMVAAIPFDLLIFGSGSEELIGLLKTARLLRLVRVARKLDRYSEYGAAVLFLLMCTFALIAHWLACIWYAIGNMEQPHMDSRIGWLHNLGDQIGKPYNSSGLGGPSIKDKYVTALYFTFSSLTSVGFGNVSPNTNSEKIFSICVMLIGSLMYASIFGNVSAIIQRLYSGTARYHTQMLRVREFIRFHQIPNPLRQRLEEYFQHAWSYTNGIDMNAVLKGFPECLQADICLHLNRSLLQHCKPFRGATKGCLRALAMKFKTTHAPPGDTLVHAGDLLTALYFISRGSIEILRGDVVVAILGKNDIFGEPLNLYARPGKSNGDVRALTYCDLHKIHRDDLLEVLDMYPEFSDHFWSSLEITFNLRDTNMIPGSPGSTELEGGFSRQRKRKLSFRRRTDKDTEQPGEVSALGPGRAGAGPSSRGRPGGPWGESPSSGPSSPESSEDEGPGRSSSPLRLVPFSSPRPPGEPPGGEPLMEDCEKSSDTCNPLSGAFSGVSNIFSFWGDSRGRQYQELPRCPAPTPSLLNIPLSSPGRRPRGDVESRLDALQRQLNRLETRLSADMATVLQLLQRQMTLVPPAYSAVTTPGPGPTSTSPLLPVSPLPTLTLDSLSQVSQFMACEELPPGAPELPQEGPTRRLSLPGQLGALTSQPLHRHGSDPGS

SMILES | MIC [1] [µg/mL] | IC50 [2] [nM] | MIC [3] [µg/mL] | IC50 [4] [nM] | MIC [5] [µg/mL] | MIC [6] [µg/mL] | MIC [7] [µg/mL] | MIC [8] [µg/mL] | IC50 [9] [nM] | IC50 [10] [nM] | IC50 [11] [nM] | MIC [12] [µg/mL] | IC50 [13] [nM] | MIC [14] [µg/mL] | inhibition at 0.05 h, 10 µM [15] [%]
COc1ccc2ncc(F)c([C@@H](O)CC[C@@H]3CCN(CCSc4cccs4)C[C@@H]3C(=O)O)c2c1 | 0.125 | 128000 | 1 | 128000 | > 8 | 1 | > 8 | > 8 | 125 | 2000 | 32000 | 0.25 | 125 | – | –
N#Cc1ccc2ccc(=O)n(CCN3CC[C@H](NCc4cc5c(cn4)OCCO5)[C@H](F)C3)c2c1 | 0.015 | 32000 | 0.25 | 8000 | 8 | 0.5 | 1 | > 8 | 30 | 125 | 8000 | 0.015 | 30 | – | –
COc1ccc2ncc(F)c([C@@H](O)[C@H](O)[C@@H]3CC[C@@H](NCc4ccc5c(n4)NC(=O)CS5)CO3)c2c1 | 0.25 | – | 0.25 | 8000 | 4 | – | – | > 8 | 125 | 125 | 2000 | – | – | > 8 | 15
COc1cc(F)c2nccc([C@@H](O)[C@H](O)[C@@H]3CC[C@@H](NCc4ccc5c(n4)NC(=O)CS5)CO3)c2c1 | 0.03 | – | 0.25 | 8000 | 4 | – | – | > 8 | 125 | 125 | 2000 | – | – | 4 | 20
COc1ccc2nccc([C@@H](O)[C@H](O)[C@@H]3CC[C@@H](NCc4ccc5c(n4)NC(=O)CS5)CO3)c2c1 | 0.25 | – | 0.25 | 8000 | 4 | – | – | > 8 | 250 | 125 | 2000 | – | – | > 8 | 24
COc1cnc2ccc(F)c([C@@H](O)[C@H](O)[C@@H]3CC[C@@H](NCc4cc5c(cn4)OCCO5)CO3)c2n1 | ≤ 0.015 | – | 0.125 | 8000 | 8 | – | – | > 8 | 125 | 500 | 8000 | – | – | 8 | 11
COc1cnc2ccc(F)c([C@@H](O)[C@H](O)[C@@H]3CC[C@@H](NCc4cc5c(nn4)OCCS5)CO3)c2n1 | ≤ 0.015 | – | 0.125 | > 8000 | > 8 | – | – | > 8 | 125 | 2000 | 8000 | – | – | 8 | 0
COc1ccc2ncc(F)c([C@@H](O)[C@H](O)[C@@H]3CC[C@@H](NCc4cc5c(cn4)OCCO5)CO3)c2n1 | 0.03 | – | 0.03 | 8000 | > 8 | – | – | > 8 | 30 | 125 | 8000 | – | – | 2 | 10
COc1ccc2ncc(F)c([C@@H](O)[C@H](O)[C@@H]3CC[C@@H](NCc4cc5c(nn4)OCCS5)CO3)c2n1 | ≤ 0.015 | – | 0.06 | 8000 | > 8 | – | – | > 8 | 125 | 500 | 8000 | – | – | 8 | 3
COc1ccc2ncc(F)c([C@@H](O)[C@H](O)[C@@H]3CC[C@@H](NCc4cc5c(nn4)OCCO5)CO3)c2n1 | 0.125 | – | 0.5 | > 8000 | > 8 | – | – | > 8 | 125 | 2000 | > 8000 | – | – | > 8 | 7
COc1ccc2nccc([C@@H](O)[C@H](O)[C@@H]3CC[C@@H](NCc4cc5c(cn4)OCCO5)CO3)c2n1 | 0.06 | – | 0.5 | 8000 | 8 | – | – | > 8 | 30 | 125 | 8000 | – | – | 4 | 27
COc1cnc2cccc([C@@H](O)[C@H](O)[C@@H]3CC[C@@H](NCc4ccc5c(n4)NC(=O)CS5)CO3)c2c1 | 0.25 | – | 0.25 | 500 | 8 | – | – | > 8 | 125 | 125 | 2000 | – | – | > 8 | 17
COc1ccc2nccc(NC(=O)[C@H]3CC[C@H](NCc4ccc5c(n4)NC(=O)CS5)CC3)c2n1 | 0.015 | 8000 | 0.063 | 125 | 0.25 | 0.063 | 0.25 | 8 | 30 | 8 | – | 0.015 | 8 | – | –
O=c1ccc2ccc(F)c3c2n1CC3CN1CCC(NCc2cc3c(cn2)OCCO3)CC1 (stereo not drawn) | 0.015 | 2000 | 0.015 | 2000 | 1 | 0.06 | 1 | > 8 | 125 | 500 | – | 0.015 | 30 | – | –
COc1ccc2nccc(C(O)C[C@@H]3CC[C@@H](NCc4ccc5c(n4)NC(=O)CS5)CO3)c2n1 (mixture of isomers) | 0.03 | – | 0.03 | > 8000 | 1 | – | – | > 8 | < 30 | < 30 | 500 | – | – | 0.5 | 99
O=C(O)c1cn(C2CC2)c2cc(N3CCNCC3)c(F)cc2c1=O [CIPROFLOXACIN] | 0.25 | – | 1 | – | 0.016 | > 8 | 0.25 | 0.25 | – | – | 500 | > 8 | – | – | –
